Data taken from PubChem BioAssay AID248 (DTP/NCI, 2004).
Where “and” joins values, the source holds several entries; their conditions need not be identical. Equal entries are not always repeated. Inconclusive results and toxic doses are left out. Rule as the data show it: active = T/C of 150% or more; inactive = T/C below 125%.

Test system: L1210 leukemia ip in BDF1 mice, survival T/C
Test: NCI In Vivo Anticancer Drug Screen. Data for tumor model L1210 Leukemia (intraperitoneal) in B6D2F1 (BDF1) mice
Conditions: higher = longer survival
In short: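 Each compound was tested against a transplantable tumor grown in mice. The endpoint was survival, with treated animals benchmarked against vehicle controls as a simple ratio.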

[1] = endpoint: mean survival time, dose: 50.0 mg/kg/injection, schedule: Q01DX001 (ip), vehicle: carboxymethylcellulose (CMC)
[2] = endpoint: mean survival time, dose: 100.0 mg/kg/injection, schedule: Q01DX001 (ip), vehicle: carboxymethylcellulose (CMC)
[3] = endpoint: mean survival time, dose: 100.0 mg/kg/injection, schedule: Q01DX001 (ip), vehicle: saline
[4] = endpoint: mean survival time, dose: 200.0 mg/kg/injection, schedule: Q01DX001 (ip), vehicle: carboxymethylcellulose (CMC)
[5] = endpoint: mean survival time, dose: 200.0 mg/kg/injection, schedule: Q01DX001 (ip), vehicle: saline
[6] = endpoint: mean survival time, dose: 100.0 mg/kg/injection, schedule: Q01DX009 (ip), vehicle: saline
[7] = endpoint: mean survival time, dose: 100.0 mg/kg/injection, schedule: Q04DX003 (ip), vehicle: saline
[8] = endpoint: mean survival time, dose: 200.0 mg/kg/injection, schedule: Q01DX009 (ip), vehicle: saline
[9] = endpoint: mean survival time, dose: 200.0 mg/kg/injection, schedule: Q04DX003 (ip), vehicle: saline
[10] = endpoint: mean survival time, dose: 400.0 mg/kg/injection, schedule: Q01DX009 (ip), vehicle: saline
[11] = endpoint: mean survival time, dose: 400.0 mg/kg/injection, schedule: Q04DX003 (ip), vehicle: saline
[12] = endpoint: mean survival time, dose: 100.0 mg/kg/injection, schedule: Q01DX009 (ip), vehicle: Klucel (hydroxypropylcellulose) (HPC)
[13] = endpoint: mean survival time, dose: 200.0 mg/kg/injection, schedule: Q01DX009 (ip), vehicle: Klucel (hydroxypropylcellulose) (HPC)
[14] = endpoint: mean survival time, dose: 400.0 mg/kg/injection, schedule: Q01DX009 (ip), vehicle: Klucel (hydroxypropylcellulose) (HPC)
[15] = endpoint: mean survival time, dose: 400.0 mg/kg/injection, schedule: Q01DX001 (ip), vehicle: carboxymethylcellulose (CMC)
[16] = endpoint: mean survival time, dose: 100.0 mg/kg/injection, schedule: Q01DX001 (ip), vehicle: Klucel (hydroxypropylcellulose) (HPC)
[17] = endpoint: mean survival time, dose: 200.0 mg/kg/injection, schedule: Q01DX001 (ip), vehicle: Klucel (hydroxypropylcellulose) (HPC)
[18] = endpoint: mean survival time, dose: 400.0 mg/kg/injection, schedule: Q01DX001 (ip), vehicle: Klucel (hydroxypropylcellulose) (HPC)

Measured: T/C

O=CNc1c(Cl)c(Cl)c2c(c1Cl)Cc1cc(Cl)ccc1-2
inactive: [1] 94 % of control | endpoint: mean survival time, dose: 50.0 mg/kg/injection, schedule: Q04DX003 (ip), vehicle: acetone 97 % of control | endpoint: mean survival time, dose: 75.0 mg/kg/injection, schedule: Q01DX009 (ip), vehicle: saline with Tween-80 108 % of control | [2] 91 % of control | [3] 91 % of control | endpoint: mean survival time, dose: 100.0 mg/kg/injection, schedule: Q04DX003 (ip), vehicle: acetone 105 % of control | endpoint: mean survival time, dose: 150.0 mg/kg/injection, schedule: Q01DX009 (ip), vehicle: saline with Tween-80 109 % of control | [4] 102 % of control | [5] 91 % of control | endpoint: mean survival time, dose: 200.0 mg/kg/injection, schedule: Q04DX003 (ip), vehicle: acetone 94 % of control

COc1cc(C(=O)OCCCN2CCOCC2)cc(OC)c1OC
inactive: endpoint: mean survival time, dose: 25.0 mg/kg/injection, schedule: Q01DX009 (ip), vehicle: saline 107 % of control | endpoint: mean survival time, dose: 25.0 mg/kg/injection, schedule: Q04DX003 (ip), vehicle: saline 106 % of control | endpoint: mean survival time, dose: 50.0 mg/kg/injection, schedule: Q01DX009 (ip), vehicle: saline 92 % of control | endpoint: mean survival time, dose: 50.0 mg/kg/injection, schedule: Q04DX003 (ip), vehicle: saline 101 % of control | [6] 92 % of control | [7] 98 % of control | [8] 105 % of control | [9] 98 % of control | [10] 100 % of control | [11] 95 % of control

F
inactive: endpoint: mean survival time, dose: 5.0 mg/kg/injection, schedule: Q01DX001 (ip), vehicle: saline 89 % of control | endpoint: mean survival time, dose: 10.0 mg/kg/injection, schedule: Q01DX001 (ip), vehicle: saline 97 % of control | endpoint: mean survival time, dose: 12.0 mg/kg/injection, schedule: Q01DX Z (ip), vehicle: saline 98 % of control | endpoint: mean survival time, dose: 20.0 mg/kg/injection, schedule: Q01DX001 (ip), vehicle: saline 103 % of control | endpoint: mean survival time, dose: 24.0 mg/kg/injection, schedule: Q01DX Z (ip), vehicle: saline 101 % of control | endpoint: mean survival time, dose: 40.0 mg/kg/injection, schedule: Q01DX001 (ip), vehicle: saline 97 % of control | endpoint: mean survival time, dose: 48.0 mg/kg/injection, schedule: Q01DX Z (ip), vehicle: saline 110 % of control | endpoint: mean survival time, dose: 62.0 mg/kg/injection, schedule: Q01DX Z (ip), vehicle: saline 92 % of control | endpoint: median survival time, dose: 5.0 mg/kg/injection, schedule: Q01DX009 (ip), vehicle: water 93 % of control | endpoint: median survival time, dose: 10.0 mg/kg/injection, schedule: Q01DX009 (ip), vehicle: water 100 % of control | endpoint: median survival time, dose: 20.0 mg/kg/injection, schedule: Q01DX009 (ip), vehicle: water 106 % of control | endpoint: median survival time, dose: 40.0 mg/kg/injection, schedule: Q01DX009 (ip), vehicle: water 106 % of control

O=P(NCCCO)(OCc1ccccc1)N(CCCl)CCCl (stereo unspecified)
inactive: endpoint: mean survival time, dose: 62.5 mg/kg/injection, schedule: Q01DX010 (ip), vehicle: saline 87 % of control | endpoint: mean survival time, dose: 125.0 mg/kg/injection, schedule: Q01DX010 (ip), vehicle: saline 98 % of control | endpoint: mean survival time, dose: 250.0 mg/kg/injection, schedule: Q01DX010 (ip), vehicle: saline 90 % of control | endpoint: mean survival time, dose: 250.0 mg/kg/injection, schedule: Q01DX Z (ip), vehicle: saline 95 % of control | endpoint: mean survival time, dose: 500.0 mg/kg/injection, schedule: Q01DX Z (ip), vehicle: saline 95 % of control | endpoint: mean survival time, dose: 750.0 mg/kg/injection, schedule: Q01DX Z (ip), vehicle: saline 118 % of control

COc1cc2nc(/C=C/c3nc4cc(OC)c(OC)cc4[nH]3)[nH]c2cc1OC
inactive: endpoint: mean survival time, dose: 25.0 mg/kg/injection, schedule: Q01DX001 (ip), vehicle: saline with Tween-80 100 % of control | endpoint: mean survival time, dose: 50.0 mg/kg/injection, schedule: Q01DX001 (ip), vehicle: saline with Tween-80 100 % of control | endpoint: mean survival time, dose: 100.0 mg/kg/injection, schedule: Q01DX001 (ip), vehicle: saline with Tween-80 94 % of control

CC(C)P(=O)(OCc1ccccc1)C(C)C
inactive: [12] 97 % of control | [13] 94 % of control | [14] 89 % of control

O=C(Nc1ccc(C(=O)O)cc1)Nc1cccc(F)c1
inactive: endpoint: mean survival time, dose: 50.0 mg/kg/injection, schedule: Q01DX009 (ip), vehicle: Klucel (hydroxypropylcellulose) (HPC) 102 % of control | [12] 111 % of control | endpoint: mean survival time, dose: 100.0 mg/kg/injection, schedule: Q04DX002 (ip), vehicle: Klucel (hydroxypropylcellulose) (HPC) 95 % of control | endpoint: mean survival time, dose: 200.0 mg/kg/injection, schedule: Q04DX002 (ip), vehicle: Klucel (hydroxypropylcellulose) (HPC) 98 % of control

O=C(O)c1cc(OCc2ccccc2)cc(OCc2ccccc2)c1
inactive: endpoint: mean survival time, dose: 25.0 mg/kg/injection, schedule: Q01DX009 (ip), vehicle: carboxymethylcellulose (CMC) 102 % of control and 105 % of control | endpoint: mean survival time, dose: 50.0 mg/kg/injection, schedule: Q01DX009 (ip), vehicle: carboxymethylcellulose (CMC) 101 % of control and 91 % of control | [2] 101 % of control and 103 % of control | endpoint: mean survival time, dose: 100.0 mg/kg/injection, schedule: Q01DX009 (ip), vehicle: carboxymethylcellulose (CMC) 92 % of control and 112 % of control and 91 % of control | endpoint: mean survival time, dose: 100.0 mg/kg/injection, schedule: Q04DX002 (ip), vehicle: carboxymethylcellulose (CMC) 92 % of control and 88 % of control | endpoint: mean survival time, dose: 100.0 mg/kg/injection, schedule: Q04DX003 (ip), vehicle: carboxymethylcellulose (CMC) 95 % of control and 97 % of control | [4] 96 % of control and 107 % of control | endpoint: mean survival time, dose: 200.0 mg/kg/injection, schedule: Q04DX002 (ip), vehicle: carboxymethylcellulose (CMC) 95 % of control and 97 % of control | endpoint: mean survival time, dose: 200.0 mg/kg/injection, schedule: Q04DX003 (ip), vehicle: carboxymethylcellulose (CMC) 99 % of control and 91 % of control | [15] 93 % of control and 96 % of control | endpoint: mean survival time, dose: 400.0 mg/kg/injection, schedule: Q04DX002 (ip), vehicle: carboxymethylcellulose (CMC) 92 % of control and 97 % of control | endpoint: mean survival time, dose: 400.0 mg/kg/injection, schedule: Q04DX003 (ip), vehicle: carboxymethylcellulose (CMC) 92 % of control and 100 % of control

O=S1(=O)CC2C1C1(Cl)C(Cl)=C(Cl)C2(Cl)C1(Cl)Cl (stereo unspecified)
inactive: [1] 100 % of control | [2] 91 % of control | [4] 96 % of control | [15] 96 % of control

Nc1ncnn1C(=O)NCCCl
inactive: [6] 94 % of control | [7] 101 % of control | [8] 97 % of control | [9] 101 % of control | [10] 97 % of control | [11] 101 % of control

O=C(c1ccc([N+](=O)[O-])cc1)C(Br)C(Br)c1ccncc1 (stereo unspecified)
inactive: [12] 89 % of control | [13] 89 % of control | [14] 93 % of control

CN(C)S(=O)(=O)c1ccc(NC(=O)OCc2ccccc2)cc1
inactive: [3] 96 % of control | [5] 94 % of control | endpoint: mean survival time, dose: 400.0 mg/kg/injection, schedule: Q01DX001 (ip), vehicle: saline 92 % of control

CC(C)(C)c1ccc(OCCCOc2ccc(C(=O)O)cc2)cc1
inactive: [16] 97 % of control | endpoint: mean survival time, dose: 100.0 mg/kg/injection, schedule: Q01DX009 (ip), vehicle: saline sonified 103 % of control | [17] 103 % of control | endpoint: mean survival time, dose: 200.0 mg/kg/injection, schedule: Q01DX009 (ip), vehicle: saline sonified 118 % of control | [18] 100 % of control | endpoint: mean survival time, dose: 400.0 mg/kg/injection, schedule: Q01DX009 (ip), vehicle: saline sonified 94 % of control

COc1ccc(OC)c(NC(=O)Oc2ccc(NC(C)=O)cc2)c1
inactive: [12] 104 % of control | [13] 102 % of control | [14] 96 % of control

CC(CP(c1ccccc1)c1ccccc1)(CP(c1ccccc1)c1ccccc1)CP(c1ccccc1)c1ccccc1
inactive: [16] 97 % of control | endpoint: mean survival time, dose: 100.0 mg/kg/injection, schedule: Q04DX003 (ip), vehicle: Klucel (hydroxypropylcellulose) (HPC) 111 % of control | [17] 87 % of control | endpoint: mean survival time, dose: 200.0 mg/kg/injection, schedule: Q04DX003 (ip), vehicle: Klucel (hydroxypropylcellulose) (HPC) 105 % of control | [18] 87 % of control | endpoint: mean survival time, dose: 400.0 mg/kg/injection, schedule: Q04DX003 (ip), vehicle: Klucel (hydroxypropylcellulose) (HPC) 90 % of control
